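These data come from cells grown in 96-well plates and exposed to compound for 48 hours at five concentrations. GI50 = concentration required for 50% inhibition of growth. TGI is the concentration that stops growth completely.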
What was measured:
Assay in all cases: NCI tumour cell line growth inhibition, 48 h
M14 melanoma = system: M14 melanoma
OVCAR-4 ovarian = system: OVCAR-4 ovarian
TK-10 renal = system: TK-10 renal
SK-OV-3 ovarian = system: SK-OV-3 ovarian
HCC-2998 colon = system: HCC-2998 colon
UACC-257 melanoma = system: UACC-257 melanoma
COLO 205 colon = system: COLO 205 colon
NCI-H226 lung = system: NCI-H226 lung
NCI/ADR-RES ovarian = system: NCI/ADR-RES ovarian
SK-MEL-2 melanoma = system: SK-MEL-2 melanoma
DU-145 prostate = system: DU-145 prostate
HS 578T breast = system: HS 578T breast
UO-31 renal = system: UO-31 renal
OVCAR-5 ovarian = system: OVCAR-5 ovarian
SF-539 CNS = system: SF-539 CNS
CCRF-CEM leukemia = system: CCRF-CEM leukemia
KM12 colon = system: KM12 colon
MDA-MB-435 = system: MDA-MB-435
MALME-3M melanoma = system: MALME-3M melanoma
SNB-75 CNS = system: SNB-75 CNS
LOX IMVI melanoma = system: LOX IMVI melanoma
SR leukemia = system: SR leukemia
EKVX NSCLC = system: EKVX NSCLC
UACC-62 melanoma = system: UACC-62 melanoma
HL-60(TB) leukemia = system: HL-60(TB) leukemia
SW-620 colon = system: SW-620 colon
RXF 393 renal = system: RXF 393 renal
HCT-116 colon = system: HCT-116 colon
OVCAR-3 ovarian = system: OVCAR-3 ovarian
SF-268 CNS = system: SF-268 CNS
ACHN renal = system: ACHN renal
BT-549 breast = system: BT-549 breast
MDA-MB-231 breast = system: MDA-MB-231 breast
SF-295 CNS = system: SF-295 CNS
PC-3 prostate = system: PC-3 prostate
IGROV1 ovarian = system: IGROV1 ovarian
SNB-19 CNS = system: SNB-19 CNS
MCF7 breast = system: MCF7 breast
A549 NSCLC = system: A549 NSCLC
HCT-15 colon = system: HCT-15 colon
SK-MEL-28 melanoma = system: SK-MEL-28 melanoma
CAKI-1 renal = system: CAKI-1 renal
SN12C renal = system: SN12C renal
HOP-92 NSCLC = system: HOP-92 NSCLC
OVCAR-8 ovarian = system: OVCAR-8 ovarian
HT29 colon = system: HT29 colon
MOLT-4 leukemia = system: MOLT-4 leukemia
K-562 leukemia = system: K-562 leukemia
U251 CNS = system: U251 CNS
NCI-H522 lung = system: NCI-H522 lung
SK-MEL-5 melanoma = system: SK-MEL-5 melanoma
RPMI-8226 leukemia = system: RPMI-8226 leukemia
HOP-62 NSCLC = system: HOP-62 NSCLC
786-0 renal = system: 786-0 renal
T-47D breast = system: T-47D breast
NCI-H460 lung = system: NCI-H460 lung
A498 renal = system: A498 renal

## CN1CCN(Cc2ccc(NC(=O)c3cncc(C#Cc4cnc5ccc(NCCCO)nn45)c3)cc2C(F)(F)F)CC1
M14 melanoma
  GI50: 96.3 nM
  TGI: 280 nM
OVCAR-4 ovarian
  GI50: 166 nM
  TGI: 1330 nM
TK-10 renal
  GI50: 384 nM
  TGI: 2150 nM
SK-OV-3 ovarian
  GI50: 308 nM
  TGI: 1590 nM
HCC-2998 colon
  GI50: 222 nM
  TGI: 1410 nM
UACC-257 melanoma
  GI50: 318 nM
  TGI: 1500 nM
COLO 205 colon
  GI50: 77.5 nM
  TGI: 188 nM
NCI-H226 lung
  GI50: 62 nM
  TGI: 311 nM
NCI/ADR-RES ovarian
  GI50: 7220 nM
  TGI: 18200 nM
SK-MEL-2 melanoma
  GI50: 79 nM
  TGI: 178 nM
DU-145 prostate
  GI50: 170 nM
  TGI: 1060 nM
HS 578T breast
  GI50: 85.5 nM
  TGI: 370 nM
UO-31 renal
  GI50: 1320 nM
  TGI: 3690 nM
OVCAR-5 ovarian
  GI50: 183 nM
  TGI: 1990 nM
SF-539 CNS
  GI50: 23.9 nM
  TGI: 125 nM
CCRF-CEM leukemia
  GI50: 24.8 nM
  TGI: 1810 nM
KM12 colon
  GI50: 11.2 nM
  TGI: 876 nM
MDA-MB-435
  GI50: 71.1 nM
  TGI: 608 nM
MALME-3M melanoma
  GI50: 97.5 nM
  TGI: 438 nM
SNB-75 CNS
  GI50: 26.3 nM
  TGI: 137 nM
LOX IMVI melanoma
  GI50: 59.9 nM
  TGI: 270 nM
SR leukemia
  GI50: 32.2 nM
  TGI: 859 nM
EKVX NSCLC
  GI50: 148 nM
  TGI: 924 nM
UACC-62 melanoma
  GI50: 210 nM
  TGI: 974 nM
HL-60(TB) leukemia
  GI50: 73.3 nM
  TGI: 462 nM
SW-620 colon
  GI50: 71.4 nM
  TGI: 368 nM
RXF 393 renal
  GI50: 169 nM
  TGI: 548 nM
HCT-116 colon
  GI50: 40.5 nM
  TGI: 221 nM
OVCAR-3 ovarian
  GI50: 137 nM
  TGI: 795 nM
SF-268 CNS
  GI50: 126 nM
  TGI: 850 nM
ACHN renal
  GI50: 483 nM
  TGI: 1490 nM
BT-549 breast
  GI50: 343 nM
  TGI: 864 nM
MDA-MB-231 breast
  GI50: 41.5 nM
  TGI: 303 nM
SF-295 CNS
  GI50: 457 nM
  TGI: 1720 nM
PC-3 prostate
  GI50: 243 nM
  TGI: 2820 nM
IGROV1 ovarian
  GI50: 104 nM
  TGI: 399 nM
SNB-19 CNS
  GI50: 304 nM
  TGI: 2920 nM
MCF7 breast
  GI50: 43.7 nM
  TGI: 404 nM
A549 NSCLC
  GI50: 202 nM
  TGI: 1110 nM
HCT-15 colon
  GI50: 851 nM
  TGI: 2990 nM
SK-MEL-28 melanoma
  GI50: 245 nM
  TGI: 1000 nM
CAKI-1 renal
  GI50: 177 nM
  TGI: 1220 nM
SN12C renal
  GI50: 90.7 nM
  TGI: 1200 nM
HOP-92 NSCLC
  GI50: 21.1 nM
  TGI: 124 nM
OVCAR-8 ovarian
  GI50: 204 nM
  TGI: 1030 nM
HT29 colon
  GI50: 108 nM
  TGI: 439 nM
MOLT-4 leukemia
  GI50: 43.5 nM
  TGI: 1620 nM
K-562 leukemia
  GI50: 5 nM
  TGI: 1840 nM
U251 CNS
  GI50: 290 nM
  TGI: 1020 nM
NCI-H522 lung
  GI50: 68.5 nM
  TGI: 247 nM
SK-MEL-5 melanoma
  GI50: 617 nM
  TGI: 1270 nM
RPMI-8226 leukemia
  GI50: 206 nM
  TGI: 898 nM
HOP-62 NSCLC
  GI50: 150 nM
  TGI: 999 nM
786-0 renal
  GI50: 299 nM
  TGI: 969 nM
T-47D breast
  GI50: 414 nM
  TGI: 3260 nM
NCI-H460 lung
  GI50: 171 nM
  TGI: 610 nM
A498 renal
  GI50: 314 nM
  TGI: 1040 nM

— PubChem BioAssay (NCI)
